Data on 13 molecules can be found in US5320948A, “Cephalosporin C acylase” (Fujisawa Pharmaceutical Co., Ltd., priority 1990, dated 1994).

Usually Km stands for the substrate concentration at which the rate is half of its maximum. As a reminder, the Ki is the equilibrium dissociation constant of an inhibitor or competing ligand from its target. Higher therefore signals a looser hold on the target.

Data set [1] relates to CC acylase N-176. Type of data set: biochemical, Pseudomonas diminuta N-176. As to conditions: pH 9. The method, then:
Effect of p-chloromercuribenzoate (pCMB, Sigma Chemical Co., Ltd.), phenylmethylsulfonyl fluoride (PMSF, Sigma) and ethylenediaminetetraacetic acid (EDTA, Nacalai Tesque Inc., Japan) on the activity of CC acylase N-176 was examined as follows. Four μg of CC acylase N-176 was treated at 37° C. for 4 hours with 0.1 or 1.0 mM pCMB, 0.1, 1.0, 2.0 or 5.0 mM PMSF, or 1.0 or 5.0 mM EDTA in 200 μl of 0.1M glycine buffer (pH 9). Residual activity of the treated enzyme was assayed by adding 22 μl of GL-7ACA (100 mg/ml) as a substrate to the mixture The reaction was performed at 37° C. for 2 min. Residual activity was expressed as a percentage compared to the activity of the enzyme treated with blank solution.

Data set [2] has as its system CC acylase N-176. Kind of data set: Specific enzyme activity, HPLC assay (Vmax and Km by Lineweaver-Burk plot). The class given is biochemical, Pseudomonas diminuta N-176. As to conditions: substrate of CC acylase N-176, 100 mM glycine buffer pH 9, 37° C., 2 min; for Km: read-out: Michaelis constant (Km). The method, then: (§1) Transformant colonies were picked up and grown overnight at 30° C. in 1 ml of 2% Bouillon (Eiken Chemical Co., Ltd., Japan) supplemented with 1 mM […] (IPTG: Sigma Chemical Co., Ltd., U.S.A.). Cells were harvested by centrifugation and resulting cell pellets were used for assay. Reaction mixture (200 μl) containing 100 mM phosphate (pH 8), 2 mg of GL-7ACA or cephalosporin C Na and cell pellets were thoroughly mixed and incubated for 10 min at 37° C. The reaction was terminated by the addition of 200 μl of 4% acetic acid. Samples were applied to a Inertsil ODS-2 column (4.6 mm×150 mm)(Gasukuro Kogyo Co., Ltd., Japan) and elution was performed with 0.567 g/l of Na2 PO4, 0.36 g/l of KH2 PO4 and 2-4% methanol. 7ACA was detected with absorption at 254 nm.
The activity of the cephalosporin C acylase was determined by HPLC assay. Reaction mixtures (200 μl) containing 100 mM glycine buffer (pH 9), 1.25-40 mM Cephalosporin C Li and 19 μg of the enzyme is used for assay of cephalosporin C acylase, meanwhile for assay of GL-7ACA acylase activity, reaction mixture (200 μl) containing 100 mM glycine buffer (pH 9), 0.48-10.4 mM GL-7ACA and 0.5 μg of the enzyme is used. Reaction mixtures were incubated for 2 min at 37° C. and the reaction was terminated by addition of 200 μl of 4% acetic acid. Conditions for HPLC were the same as those described in Example 1.3. All assays used later in this section was HPLC method. Specific enzyme activity was expressed as unit per mg of protein. Protein concentrations were determined by Bio-Rad protein assay kit (Bio-Rad Co., Ltd., U.S.A.) with bovine serum albumin as a standard. Maximum specific enzyme activity (Vmax) and Michaelis constant (Km) were calculated from slope and intersection which were obtained by Lineweaver-Burk plot (Cf. M. Dixon and E. C. Webb, Enzymes, Longmans, London, 1958). Maximum specific enzyme activity of CC acylase N-176 was 100 and 3.1 units/mg for GL-7ACA and cephalosporin C, respectively.

Data set [3] has as its system CC acylase N-176. Nature of the data set: Substrate profile of CC acylase N-176, HPLC assay. Type of data set: biochemical, Pseudomonas diminuta N-176. The conditions noted are these: percentage compared to the activity for GL-7ACA; 2 mg substrate, 20 μg enzyme, pH 9, 50° C., 2 min. The method, then:
as §1
Enzyme activity was determined by HPLC assay. Reaction mixture (200 μl) containing 100 mM glycine buffer (pH 9), 2 mg of a substrate and 20 μg of the enzyme was incubated at 50° C. for 2 min and the reaction was terminated by addition of 4% acetic acid. The relative enzyme activity was expressed as a percentage compared to the activity for GL-7ACA. To be noted, acylase activity for cephalosporin C was examined also by detecting the production of α-aminoadipic acid with the amino acid analyzer (Hitachi Co., Ltd., Japan).

Data set [4] deals with CC acylase N-176. Kind of data set: Determination of inhibition constants (Ki) for reaction products, GL-7ACA acylase activity. The class given is biochemical, Pseudomonas diminuta N-176. The conditions noted are these: for mode of inhibition: Lineweaver-Burk plots in absence and presence of inhibitor; for Ki: substrate GL-7ACA, 0.1M glycine buffer pH 9, 37° C., 3 min. The procedure: Enzyme activity was assayed in the presence of 7-ACA or glutaric acid. For determination of Ki of 7-ACA, reaction mixtures (200 μl) containing 0.1M glycine buffer (pH 9), 0.26-2.08 μmole of GL-7ACA, 0.182-1.0 μmole of 7-ACA and 1 μg of enzyme was incubated at 37° C. for 3 min. For determination of Ki of glutaric acid, reaction mixture (200 μl) containing 0.1M glycine buffer (pH 9), 0.096-2.08 μmole of GL-7ACA, 0.25-0.5 μmole of glutaric acid and 0.5 μg of the enzyme was incubated at 37° C. for 3 min. […] Ki values were calculated from the apparent Michaelis constants (Kmapp), Km and Vmax.

Data set [5] is described as follows: Optimum temperature of the enzyme. The class given is biochemical. As to conditions: 0.1M glycine buffer pH 9, 2 mg GL-7ACA, 2 min, 25° to 60° C. The method, then:
Reaction mixture (200 μl) containing 0.1M glycine buffer (pH 9), 2 mg of GL-7ACA and 2 μg of the enzyme were incubated for 2 min at various temperature from 25° to 60° C. The optimum temperature was 50° C.

The next data set can be described thus: Optimum pH of the enzyme. Type of data set: biochemical. The conditions noted are these: 0.1M buffers pH 6-10, 37° C., 2 min. The method, then: Reaction mixture (200 μl) containing 0.1M buffer (phosphate buffer between pH 6-8, Tris HCl buffer between pH 7-9 and glycine buffer between pH 8-10), 2 mg of GL-7ACA or 3.3 mg of cephalosporin C Li and 3 μg of the enzyme was used. The reaction was performed at 37° C. for 2 min. Optimum pH for the enzyme was 9.

A short description of data set [6]: Determination of isoelectric point (pI) by analytical isoelectric focusing. The class given is physicochemical. The conditions noted are these: 4% polyacrylamide gel, Ampholine pH range 3.5-10. The method, then: Analytical isoelectric focusing of CC acylase N-176 was performed according to the method of Olson et al(Cf.FEMS Microbiol. Lett. 1, 157-162(1977)). Purified acylase preparation was applied on thin layer of 4% polyacrylamide gel containing 2% Ampholine pH range 3.5-10 (Pharmacia LKB Biotechnology, Sweden). The proteins were electrofocused for 2 hours at 100 volts using isoelectric focusing apparatus SJ-1071EC (ATTO Co., Ltd., Japan). After electrofocusing, the gel was stained with Coomassie Brilliant Blue R-250 and the isoelectric point was determined from the calibration curve made with pI markers (Pharmacia LKB Technology) which were run simultaneously with the sample. The pI value of CC acylase N-176 was estimated to be 4.5.

The mark [7] stands for this setting: inhibitor 0.1 mM, treated at 37° C. for 4 hours, substrate GL-7ACA.
Where [8] appears, read: inhibitor 1.0 mM, treated at 37° C. for 4 hours, substrate GL-7ACA.

Values joined by “and” are separate entries in the source; they are usually repeats but may differ in a detail not shown here. Equal values may be shown once. Read-outs that look alike come from different tables or passages of the source.

As for `O=C(O)CN(CCN(CC(=O)O)CC(=O)O)CC(=O)O` [EDTA, ethylenediaminetetraacetic acid], the “Residual enzyme activity (%)” value with CC acylase N-176 [1] was 91% and 73%.

`O=S(=O)(F)Cc1ccccc1` [PMSF, phenylmethylsulfonyl fluoride]: the “Residual enzyme activity (%)” value was found to be 96% in the data set on CC acylase N-176 [1] (setting [7]); 91% in the data set on CC acylase N-176 [1] (setting [8]); 79% with CC acylase N-176 [1] (inhibitor 2.0 mM, treated at 37° C. for 4 hours, substrate GL-7ACA); 62% in the data set with CC acylase N-176 [1] (inhibitor 5.0 mM, treated at 37° C. for 4 hours, substrate GL-7ACA). In the case of `CC(=O)OCC1=C(C(=O)O)N2C(=O)[C@@H](NC(=O)CCC[C@@H](N)C(=O)O)[C@H]2SC1` [Cephalosporin C], in the data set with CC acylase N-176 [2], the “Maximum specific enzyme activity (Vmax)” value is given as 3.1 units/mg and the Michaelis-Menten constant (Km) was 4.8 mM. In the data set on CC acylase N-176 [3], this molecule registered a Relative enzyme activity of 4%.

`O=C(O)CCCC(=O)O` [glutaric acid]: in the data set on CC acylase N-176 [4], the mode of inhibition entry is “competitive” and the inhibition constant Ki turned out to be 2500 µM. For the molecule `CC(=O)OCC1=C(C(=O)O)N2C(=O)[C@@H](NC(=O)Cc3cccs3)[C@H]2SC1` [Cephalothin], in the data set on CC acylase N-176 [3], the Relative enzyme activity was 0.08%. In the data set with CC acylase N-176 [3], `CC(=O)OCC1=C(C(=O)O)N2C(=O)[C@@H](NC(=O)CCC(=O)O)[C@H]2SC1` [Succinyl 7ACA, 7(3-carboxypropionamido)-3-acetoxymethyl-3-cephem-4-carboxylic acid] came in with a Relative enzyme activity of 32%. In turn, `CC(=O)N[C@H](CCCC(=O)N[C@@H]1C(=O)N2C(C(=O)O)=C(COC(C)=O)CS[C@H]12)C(=O)O` [N-Acetylcephalosporin C] came in with a Relative enzyme activity in the data set with CC acylase N-176 [3] of 0.1%. In the case of `CC(=O)OCC1=C(C(=O)O)N2C(=O)[C@@H](NC(=O)CCCC(=O)O)[C@H]2SC1` [Glutaryl 7ACA, 7(4-carboxybutanamdio)-3-acetoxymethyl-3-cephem-4-carboxylic acid], in the data set with CC acylase N-176 [2], the “Maximum specific enzyme activity (Vmax)” value is recorded as 100 units/mg and the Michaelis constant (Km) was found to be 2.6 mM. The molecule further displayed a Relative enzyme activity with CC acylase N-176 [3] of 100%. In the data set with CC acylase N-176 [3], `CC(=O)OCC1=C(C(=O)O)N2C(=O)[C@@H](NC(=O)CCCCC(=O)O)[C@H]2SC1` [Adipyl 7ACA, 7(5-carboxypentanamido)-3-acetoxymethyl-3-cephem-4-carboxyli acid] gave a Relative enzyme activity of 19%. Regarding `CC(=O)OCC1=C(C(=O)O)N2C(=O)[C@@H](N)[C@H]2SC1` [7-ACA, 7-aminocephalosporanic acid], in the data set on CC acylase N-176 [4], the mode of inhibition result was “competitive” and the inhibitory constant (Ki) came to 1400 µM.

On to `CC(=O)OCC1=C(C(=O)O)N2C(=O)[C@@H](NC(=O)CCC[C@@H](NC(=O)c3ccccc3)C(=O)O)[C@H]2SC1` [N-Benzyoylcephalosporin C, N-benzoylcephalosporin C], for which the Relative enzyme activity with CC acylase N-176 [3] is on record as 0.0003%. For the molecule `O=C(O)c1cc[c]([Hg][Cl])cc1` [pCMB, p-chloromercuribenzoate], the “Residual enzyme activity (%)” value with CC acylase N-176 [1] (setting [7]) stood at 7.8%; with CC acylase N-176 [1] (setting [8]), 4.6%.

B1: CC acylase N-176: new cephalosporin C acylase derived from Pseudomonas diminuta N-176, composed of α and β subunits (protein)
chain: MTMAANTDRAVLQAALPPLSGSLPIPGLSASVRVRRDAWGIPHIKASGEADAYRALGFVHSQDRLFQMELTRRKALGRAAEWLGAEAAEADILVRRLGMEKVCRRDFEALGVEAKDMLRAYVAGVNAFLASGAPLPVEYGLLGAEPEPWEPWHSIAVMRRLGLLMGSVWFKLWRMLALPVVGAANALKLRYDDGGRDLLCIPPGAEADRLEADLATLRPAVDALLKAMGGDASDAAGGGSNNWAVAPGRTATGRPILAGDPHRVFEIPGMYAQHHLACDRFDMIGLTVPGVPGFPHFAHNGKVAYCVTHAFMDIHDLYLEQFAGEGRTARFGNDFEPVAWSRDRIAVRGGADREFDIVETRHGPVIAGDPRDGAALTLRSVQFAETDLSFDCLTRMPGASTVAQLYDATRGWGLIDHNLVAGDVAGSIGHLVRARVPSRPRENGWLPVPGWSGEHEWRGWIPHEAMPRVIDPPGGIIVTANNRVVADDHPDYLCTDCHPPYRAERIMKRLVANPAFAVDDAAAIHADTLSPHVGLLRRRLEALGARDDSAAEGLRQMLVAWDGRMDAASEVASAYNAFRRALTRLVTDRSGLEQAISHPFAAVAPGVSPQGQVWWAVPTLLRDDDAGMLKGWSWDQALSEALSVASQNLTGRSWGEEHRPRFTHPLATQFPAWAGLLNPASRPIGGDGDTVLANGLVPSAGPQATYGALSRYVFDVGNWDNSRWVVFHGASGHPASAHYADQNAPWSDCAMVPMLYSWDRIAAEAVTSQELVPA
For the molecule B1, in data set [5], the optimum temperature came to 50 °C. Besides, the “Optimum pH” value in “Optimum pH of the enzyme” came out at 9. In addition, the pI value in data set [6] is recorded as about 4.5.
